Assay: Doxycycline base content and epimer contents after storage (Tableau 2)
Format: physicochemical
Description: En outre, le tableau 2 présente une comparaison des teneurs en épimères (en p. cent) de deux préparations contenant la doxycycline (sous forme hyclate), avec le principe actif ayant servi à leur formulation. La formulation testée correspond à un produit stable.

[1] = après 1 mois de conservation à 37°C (étuve sèche), p.cent of area under chromatographic peaks
[2] = après 3 mois de conservation à température ambiante, p.cent of area under chromatographic peaks

## C[C@H]1c2cccc(O)c2C(=O)C2=C(O)[C@]3(O)C(=O)C(C(N)=O)=C(O)[C@@H](N(C)C)[C@@H]3[C@@H](O)[C@@H]21 [Doxycycline hyclate, hyclate de doxycycline]
après 1 mois de conservation à 37°C (étuve sèche)
  Doxycycline base: 858,2 mg/g
[1]
  6 Epidoxycycline: 0,96 p.cent
  Déméclocycline: 1,99 p.cent
  Oxytétracycline: 0,65 p.cent
après 3 mois de conservation à température ambiante
  Doxycycline base: 899,0 mg/g
[2]
  6 Epidoxycycline: 0,30 p.cent
  Déméclocycline: 1,81 p.cent
  Oxytétracycline base: 0,43 p.cent

Reference: EP0356325A1, “Pharmaceutical composition containing a slightly water-soluble active substance and at least a glyceride gelled by at least a cellulose polymer” (Aiache, Jean-Marc, priority 1988, dated 1990)
